Holding throughout (assay): inhibition of tumour cell growth, NCI panel, 48 h
Experiment [1] concerns NCI-H522.
Experiment [2] concerns RXF 393.
Experiment [3] concerns HT-29.
In experiment [4] the test system is SK-MEL-5.
For experiment [5], the system named is HOP-92.
Experiment [6] deals with OVCAR-4.
Experiment [7] deals with HCC 2998.
Experiment [8] deals with SW-620.
In experiment [9] the test system is EKVX.
The subject of experiment [10] is OVCAR-8.
Experiment [11] concerns 786-0.
Experiment [12] deals with SNB-19.
The test system of experiment [13] is UO-31.
Experiment [14] has as its system OVCAR-3.
Experiment [15] concerns HL-60.
Experiment [16] has as its system KM12.
The subject of experiment [17] is ACHN.
For experiment [18], the system named is TK-10.
In experiment [19] the test system is SF-268.
In experiment [20] the test system is UACC-62.

Experimental findings from ChEMBL document CHEMBL1201862, “PubChem BioAssay data set” (2004) are described below.

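Compound exposure: 48 hours, 5 concentrations, 96-well plates. GI50 marks 50% less growth.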 Active and inactive are the calls of the source. Cut-off read from the data, not from the text of the source: active = GI50 up to about 1.1 µM and inactive = higher.

As to `COc1ccc(-c2c(-c3ccccc3)c(C)nc3[nH]c(=S)[nH]c(=S)c23)cc1OC`, the GI50 in experiment [1] is 27.1 µM (inactive); in [2] it was 35.8 µM (inactive); in experiment [3], 41 µM (inactive); in experiment [4], 28.1 µM (inactive); in [5] it was 33.8 µM (inactive); in experiment [6] it was > 100 µM (inactive). Moreover, the GI50 in experiment [7] is 37.6 µM (inactive); in experiment [8], 61.7 µM (inactive); in experiment [9], 54.8 µM (inactive); in [10], 42 µM (inactive); in [11], 35.6 µM (inactive); in experiment [12], 60.3 µM (inactive). The GI50 in experiment [13] was 21.6 µM (inactive); in experiment [14], 20.3 µM (inactive); in experiment [15] it was 31.8 µM (inactive); in [16] it was 18.5 µM (inactive); in experiment [17] it was 30.3 µM (inactive); in experiment [18], 45.7 µM (inactive). Moreover, the GI50 in experiment [19] is 23.9 µM (inactive); in experiment [20], 16.1 µM (inactive).

As to `C/C(=N\NC(=O)c1ccncc1)c1ccc2ccccc2c1O`, the GI50 in [1] was 0.869 µM (active); in [2], 3.08 µM (inactive); in [3], 0.498 µM (active); in experiment [4], 1.67 µM (inactive); in experiment [5] it was 8.28 µM (inactive); in experiment [6], 0.966 µM (active). For the same molecule, the GI50 in [7] is 2.9 µM (inactive); in experiment [8] it was 3.12 µM (inactive); in experiment [9], 0.832 µM (active); in experiment [10], 2.18 µM (inactive); in experiment [11], 0.548 µM (active); in experiment [12], 17.5 µM (inactive). Moreover, the GI50 in experiment [13] is 0.838 µM (active); in [14], 0.29 µM (active); in experiment [15], 0.638 µM (active); in experiment [16], 2.31 µM (inactive); in experiment [17], 0.993 µM (active); in [18], 4.63 µM (inactive). The GI50 in [19] is 0.802 µM (active); in experiment [20] it was 2.19 µM (inactive).

As to `COc1cc(-c2cc(-c3ccccc3)nc(-c3c(OC)ccc4c(C)cc(=O)oc34)c2)cc(OC)c1OC`, the GI50 in experiment [1], in [2], in [3], in experiment [4], in [5] and in experiment [6] was > 100 µM (inactive) in each case. The GI50 in experiment [7], in experiment [8], in [9], in experiment [10], in experiment [11] and in experiment [12] was > 100 µM (inactive) each time. Further, the GI50 in experiment [13] was > 100 µM (inactive); in [14] it was > 100 µM (inactive); in [15] it was 13.6 µM (inactive); in experiment [16], > 100 µM (inactive); in experiment [17], > 100 µM (inactive); in experiment [18], > 100 µM (inactive). Moreover, the GI50 in experiment [19] and in experiment [20] was > 100 µM (inactive) throughout.

In the case of `[O-][S+]1c2ccccc2N=C(c2ccc(Cl)cc2)CC1c1cccs1` (stereo not given), the GI50 was 27.4 µM (inactive) in experiment [1]; 14.4 µM (inactive) in experiment [2]; 17.3 µM (inactive) in [3]; 19 µM (inactive) in experiment [4]; 19.7 µM (inactive) in experiment [5]; 11 µM (inactive) in experiment [6]. Besides, the GI50 in experiment [7] was 16.3 µM (inactive); in [8] it was 14.4 µM (inactive); in [9] it was 35.4 µM (inactive); in [10] it was 17.8 µM (inactive); in [11], 15 µM (inactive); in experiment [12] it was 21.1 µM (inactive). In addition, the GI50 in [13] was 17.7 µM (inactive); in experiment [14], 1.68 µM (inactive); in experiment [15], 14.2 µM (inactive); in experiment [16], 14.7 µM (inactive); in experiment [17] it was 28.2 µM (inactive); in experiment [18], 39.3 µM (inactive). Moreover, the GI50 in experiment [19] was 29.2 µM (inactive); in experiment [20] it was 15.7 µM (inactive).

Take `O=S(=O)(Nc1ccccc1)c1ccc(-c2c3nc(c(-c4ccc(S(=O)(=O)Nc5ccccc5)cc4)c4ccc([nH]4)c(-c4ccc(S(=O)(=O)Nc5ccccc5)cc4)c4nc(c(-c5ccc(S(=O)(=O)Nc6ccccc6)cc5)c5ccc2[nH]5)C=C4)C=C3)cc1`: the GI50 was > 31.6 µM (inactive) in experiment [1]; > 31.6 µM (inactive) in experiment [2]; > 31.6 µM (inactive) in experiment [3]; > 31.6 µM (inactive) in experiment [4]; 12.8 µM (inactive) in experiment [5]; 12.6 µM (inactive) in experiment [6]. Also, the GI50 in experiment [7] was 17.7 µM (inactive); in experiment [8] it was > 31.6 µM (inactive); in experiment [9], > 31.6 µM (inactive); in experiment [10], > 31.6 µM (inactive); in experiment [11] it was 18.9 µM (inactive); in [12], 14.1 µM (inactive). The GI50 is > 31.6 µM (inactive) in experiment [13]; > 10 µM (inactive) in experiment [14]; > 31.6 µM (inactive) in [15]; > 31.6 µM (inactive) in experiment [16]; 11.1 µM (inactive) in experiment [17]; > 31.6 µM (inactive) in [18]. The GI50 in experiment [19] and in experiment [20] was > 31.6 µM (inactive) in each case.

Turning to `Cc1nc2ccc(S(=O)(=O)NS(=O)(=O)c3ccc(-c4ccccc4)cc3)cc2c(=O)n1NS(=O)(=O)c1ccc(-c2ccccc2)cc1`, the GI50 was > 100 µM (inactive) in experiment [1]; > 100 µM (inactive) in experiment [2]; > 100 µM (inactive) in experiment [3]; > 100 µM (inactive) in experiment [4]; 23.4 µM (inactive) in experiment [5]; 60 µM (inactive) in [6]. Also, the GI50 in experiment [7] was > 100 µM (inactive); in [8], > 100 µM (inactive); in experiment [9] it was 68.2 µM (inactive); in experiment [10], 77.4 µM (inactive); in [11] it was > 100 µM (inactive); in experiment [12], > 100 µM (inactive). Further, the GI50 in experiment [13], in experiment [14], in experiment [15], in [16], in [17] and in experiment [18] was > 100 µM (inactive) throughout. For the same molecule, the GI50 in experiment [19] and in experiment [20] was > 100 µM (inactive) throughout.

`O=C1/C(=c2\c3ccccc3n3c(=O)c4ccccc4nc23)Nc2ccccc21` [CANDIDINE]: the GI50 in experiment [1] was > 100 µM (inactive); in [2] it was > 100 µM (inactive); in experiment [3], 26.6 µM (inactive); in [4], > 53.8 µM (inactive); in experiment [5] it was > 75.7 µM (inactive); in experiment [6], > 100 µM (inactive). Besides, the GI50 in [7] is > 82.4 µM (inactive); in experiment [8] it was > 100 µM (inactive); in [9], > 88.9 µM (inactive); in experiment [10], > 91.8 µM (inactive); in experiment [11], 58.7 µM (inactive); in experiment [12] it was > 100 µM (inactive). Moreover, the GI50 in experiment [13] was > 21.5 µM (inactive); in experiment [14] it was 45.9 µM (inactive); in [15], > 10 µM (inactive); in experiment [16], > 59.7 µM (inactive); in [17], > 100 µM (inactive); in experiment [18] it was > 100 µM (inactive). Moreover, the values for the GI50 in experiment [19] and in [20] were 85.3 µM (inactive) and 43.9 µM (inactive), respectively.
